# Data as given in paper PMC12217463, “Functional and structural analyses of amino acid sequence variation in PDC β-lactamase reveal different mechanistic pathways toward cefiderocol resistance in Pseudomonas aeruginosa” (Antimicrobial Agents and Chemotherapy, 2025).
# Tests used:
# PAO1 + blaPDC A200T = assay: MIC, broth microdilution; assay type: cell-based; conditions: Pseudomonas aeruginosa
# From the text: (§1) We took advantage of a previously constructed and characterized laboratory collection of recombinant P. aeruginosa PAO1 isolates expressing different blaPDC variants, but specifically enriched for this work with additional variants, following the previously described methodology ([17]). […] The final collection comprised 40 recombinant isolates (20 in PAO1 and 20 in PAO ΔpiuC) producing the wild-type PDC-1 variant from PAO1 and 19 derivatives carrying specific amino acid substitutions previously associated with the development of resistance to ceftazidime/avibactam, ceftolozane/tazobactam, or cefiderocol: T70I, F121L, P153L, G156D, A200T, G202S, ΔG202-E219, G214R, P215L, P215S, ΔP215-G222, D217N, E219K, E219G, E219D, S226ins, L293P, F121L + E219K, and F121L + G222S.
# (§2) The MICs of ceftazidime, ceftazidime/avibactam, ceftolozane/tazobactam, cefepime, and cefiderocol were determined in triplicate, for all isolates, by reference broth microdilution assays. Avibactam and tazobactam were fixed at 4 mg/L. All assays were performed using cation-adjusted Mueller-Hinton broth (CAMHB), except for cefiderocol, which was determined in all cases using iron-depleted CAMHB, prepared according to CLSI M100 guidelines ([40]). EUCAST v.15.0 clinical breakpoints and guidelines (http://www.eucast.org/clinical_breakpoints/) were used for reference purposes. Reference strains Escherichia coli ATCC 25922, Klebsiella pneumoniae ATCC 700603, and P. aeruginosa ATCC 27853 were used as controls.
# PAO1 + blaPDC D217N = assay: MIC, broth microdilution; assay type: cell-based; conditions: Pseudomonas aeruginosa
# From the text: as §1, §2
# PAO1 + blaPDC E219D = assay: MIC, broth microdilution; assay type: cell-based; conditions: Pseudomonas aeruginosa
# From the text: as §1, §2
# PAO1 + blaPDC E219K = assay: MIC, broth microdilution; assay type: cell-based; conditions: Pseudomonas aeruginosa
# From the text: as §1, §2
# [1] = tested on: PAO1 + blaPDC F121L + E219K; assay: MIC, broth microdilution; assay type: cell-based; conditions: Pseudomonas aeruginosa
# From the text: as §1, §2
# PAO1 + blaPDC F121L = assay: MIC, broth microdilution; assay type: cell-based; conditions: Pseudomonas aeruginosa
# From the text: as §1, §2
# PAO1 + blaPDC G156D = assay: MIC, broth microdilution; assay type: cell-based; conditions: Pseudomonas aeruginosa
# From the text: as §1, §2
# PAO1 + blaPDC G202S = assay: MIC, broth microdilution; assay type: cell-based; conditions: Pseudomonas aeruginosa
# From the text: as §1, §2
# PAO1 + blaPDC G214R = assay: MIC, broth microdilution; assay type: cell-based; conditions: Pseudomonas aeruginosa
# From the text: as §1, §2
# PAO1 + blaPDC L293P = assay: MIC, broth microdilution; assay type: cell-based; conditions: Pseudomonas aeruginosa
# From the text: as §1, §2
# PAO1 + blaPDC P153L = assay: MIC, broth microdilution; assay type: cell-based; conditions: Pseudomonas aeruginosa
# From the text: as §1, §2
# PAO1 + blaPDC P215L = assay: MIC, broth microdilution; assay type: cell-based; conditions: Pseudomonas aeruginosa
# From the text: as §1, §2
# PAO1 + blaPDC P215S = assay: MIC, broth microdilution; assay type: cell-based; conditions: Pseudomonas aeruginosa
# From the text: as §1, §2
# PAO1 + blaPDC S226ins = assay: MIC, broth microdilution; assay type: cell-based; conditions: Pseudomonas aeruginosa, avibactam and tazobactam fixed at 4 mg/L, FDC in iron-depleted CAMHB
# From the text: as §1, §2
# PAO1 + blaPDC T70I = assay: MIC, broth microdilution; assay type: cell-based; conditions: Pseudomonas aeruginosa
# From the text: as §1, §2
# PAO1 + blaPDC ∆P215-G222 = assay: MIC, broth microdilution; assay type: cell-based; conditions: Pseudomonas aeruginosa, avibactam and tazobactam fixed at 4 mg/L, FDC in iron-depleted CAMHB
# From the text: as §1, §2
# PAO1 + blaPDC-1 (WT) = assay: MIC, broth microdilution; assay type: cell-based; conditions: Pseudomonas aeruginosa, avibactam and tazobactam fixed at 4 mg/L, FDC in iron-depleted CAMHB
# From the text: as §1, §2
# PAO1 = assay: MIC, broth microdilution; assay type: cell-based; conditions: Pseudomonas aeruginosa; PAO1 wild type, no plasmid-borne PDC; avibactam and tazobactam fixed at 4 mg/L; FDC in iron-depleted CAMHB
# From the text: as §1, §2
# [2] = tested on: PAO1 + blaPDC F121L + G220S; assay: MIC, broth microdilution; assay type: cell-based; conditions: Pseudomonas aeruginosa
# [3] = tested on: PAO ΔpiuC producing PDC E219D; assay: Cefiderocol MIC, iron uptake-deficient host; assay type: cell-based; conditions: Pseudomonas aeruginosa
# From the text: as §1, §2
# [4] = tested on: PAO ΔpiuC producing PDC E219G; assay: Cefiderocol MIC, iron uptake-deficient host; assay type: cell-based; conditions: Pseudomonas aeruginosa
# From the text: as §1, §2
# [5] = tested on: PAO ΔpiuC producing PDC G214R; assay: Cefiderocol MIC, iron uptake-deficient host; assay type: cell-based; conditions: Pseudomonas aeruginosa
# From the text: as §1, §2
# [6] = tested on: PAO ΔpiuC producing PDC P153L; assay: Cefiderocol MIC, iron uptake-deficient host; assay type: cell-based; conditions: Pseudomonas aeruginosa
# From the text: as §1, §2
# [7] = tested on: PAO ΔpiuC producing PDC P215L; assay: Cefiderocol MIC, iron uptake-deficient host; assay type: cell-based; conditions: Pseudomonas aeruginosa
# From the text: as §1, §2
# [8] = tested on: PAO ΔpiuC producing PDC P215S; assay: Cefiderocol MIC, iron uptake-deficient host; assay type: cell-based; conditions: Pseudomonas aeruginosa
# From the text: as §1, §2
# [9] = tested on: PAO ΔpiuC producing PDC ∆G202-E219; assay: Cefiderocol MIC, iron uptake-deficient host; assay type: cell-based; conditions: Pseudomonas aeruginosa
# From the text: as §1, §2
# [10] = tested on: PAO1 producing the Ω-loop variants ∆P215-G222, E219K, and F121L + E219K; assay: MIC, group of Ω-loop variants in PAO1; assay type: cell-based; conditions: Pseudomonas aeruginosa; range over PAO1 producing ∆P215-G222, E219K and F121L + E219K
# From the text: as §1
# (§3) The MICs of ceftazidime, ceftazidime/avibactam, ceftolozane/tazobactam, cefepime, and cefiderocol were determined in triplicate, for all isolates, by reference broth microdilution assays. Avibactam and tazobactam were fixed at 4 mg/L. All assays were performed using cation-adjusted Mueller-Hinton broth (CAMHB), except for cefiderocol, which was determined in all cases using iron-depleted CAMHB, prepared according to CLSI M100 guidelines ([40]). EUCAST v.15.0 clinical breakpoints and guidelines (http://www.eucast.org/clinical_breakpoints/) were used for reference purposes. […]
# [11] = tested on: PAO ΔpiuC producing the ∆P215-G222, E219K, F121L + E219K, and L293P variants; assay: MIC, group of variants in PAO ΔpiuC; assay type: cell-based; conditions: Pseudomonas aeruginosa
# From the text: as §1, §3
# [12] = tested on: E219K or L293P substitutions combined with inactivating mutations affecting iron uptake (∆piuC); assay: MIC, E219K or L293P with impaired iron uptake; assay type: cell-based; conditions: Pseudomonas aeruginosa
# From the text: as §1, §3
# [13] = tested on: P. aeruginosa isolates overproducing PDC variants; conditions: clinical strains, values generally remain below; cited from earlier work
# PDC-1 (WT) = PDC-1 (WT) (Pseudomonas aeruginosa, UniProt P24735); assay: Steady-state kinetics of purified β-lactamase
# PDC E219K = PDC E219K (Pseudomonas aeruginosa, UniProt P24735, E247K); assay: Steady-state kinetics of purified β-lactamase; conditions: for kcat: direct hydrolysis at substrate concentration at least three times the Km; for Ratio for PDC E219K/PDC-1: ratio of kcat/Km (fold change in catalytic efficiency)
compound,measurement,setting,value
"CC(C)(O/N=C(\C(=O)N[C@@H]1C(=O)N2C(C(=O)[O-])=C(C[N+]3(CCNC(=O)c4ccc(O)c(O)c4Cl)CCCC3)CS[C@H]12)c1csc(N)n1)C(=O)O [FDC, cefiderocol]",MIC,PAO1 + blaPDC A200T,0.5 µg/mL
same,MIC,PAO1 + blaPDC D217N,0.5 µg/mL
same,MIC,PAO1 + blaPDC E219D,0.5 µg/mL
same,MIC,PAO1 + blaPDC E219K,4 µg/mL
same,MIC,[1],4 µg/mL
same,MIC,PAO1 + blaPDC F121L,0.5 µg/mL
same,MIC,PAO1 + blaPDC G156D,0.5 µg/mL
same,MIC,PAO1 + blaPDC G202S,0.5 µg/mL
same,MIC,PAO1 + blaPDC G214R,1 µg/mL
same,MIC,PAO1 + blaPDC L293P,4 µg/mL
same,MIC,PAO1 + blaPDC P153L,0.5 µg/mL
same,MIC,PAO1 + blaPDC P215L,0.5 µg/mL
same,MIC,PAO1 + blaPDC P215S,0.5 µg/mL
same,MIC,PAO1 + blaPDC S226ins,0.5 µg/mL
same,MIC,PAO1 + blaPDC T70I,0.5 µg/mL
same,MIC,PAO1 + blaPDC ∆P215-G222,2 µg/mL
same,MIC,PAO1 + blaPDC-1 (WT),0.25 µg/mL
same,MIC,PAO1,0.125 µg/mL
same,MIC,[2],0.25 µg/mL
same,MIC,[3],8 µg/mL
same,MIC,[4],8 µg/mL
same,MIC,[5],16 µg/mL
same,MIC,[6],8 µg/mL
same,MIC,[7],8 µg/mL
same,MIC,[8],8 µg/mL
same,MIC,[9],8 µg/mL
same,MIC,[10],2 to 4 µg/mL
same,MIC,[11],32 to 64 µg/mL
same,MIC,[12],≥ 32 µg/mL
same,MIC,[13],below 2 mg/L
same,kcat,"PDC-1 (WT); PDC-1 (WT), direct hydrolysis at substrate concentration at least three times the Km, 10 mM PBS, pH 7.4, room temperature",0.0036 s⁻¹
same,Ratio,PDC-1 (WT); kcat/Km relative to PDC-1 (reference = 1),1
same,increase in kcat values,PDC E219K; PDC E219K relative to PDC-1,≈ 125 fold
same,Km,"PDC E219K; PDC E219K, antibiotics: determined as Ki app with nitrocefin as reporter substrate, 10 mM PBS, pH 7.4, room temperature",466 ± 120 µM
same,kcat,"PDC E219K; PDC E219K, 10 mM PBS, pH 7.4, room temperature, listed as Cefiderocol",0.45 ± 0.03 s⁻¹
same,kcat,"PDC E219K; PDC E219K, 10 mM PBS, pH 7.4, room temperature, listed as cefiderocol",0.45 s⁻¹
same,Ratio for PDC E219K/PDC-1,PDC E219K; listed as Cefiderocol,24.00
same,Ratio for PDC E219K/PDC-1,PDC E219K; listed as cefiderocol,≈ 24
